Experimental data published in patent US9000135B2, “Self-reactive arms and prodrugs comprising same” (Centre Nationale de Recherche Scientifique, priority 2010, dated 2015).

How the values were obtained:
Format in all cases: cell-based
[1] = system: HeLa cells, expressing the folic acid receptor (FR); test: Internalization monitored by confocal microscopy (doxorubicin fluorescence) in HeLa cells; settings: 10 μM
Description: (§1) Compound (7) was tested on two cell lines, the HeLa cells, expressing the folic acid receptor (FR), and the A549 cells expressing little or none of these receptors.
(§2) The HeLa and A549 cells were cultured in RPMI 1640 medium supplemented with 10% fetal calf serum (InVitrogen) at 37° C. in an atmosphere containing 5% CO2.
(§3) For confocal microscopy experiments, the cells were cultured in a glass-bottomed bowl.
(§4) The cells were incubated for 1 hour in the presence or absence of 1 μm of folic acid before being treated with either a buffer solution (control), or doxorubicin at 10 μM, or with a doxorubicin-galactose (DOX-GAL) conjugate, compound (5), in a concentration of 10 μM, or compound (7) (DOX-GAL-AF) in a concentration of 10 μM, or compound (7) in the presence of folic acid with respective concentrations of 10 μM.
(§5) After treatment, the cells were rinsed with PBS and fixed with a PBS-3.7% formaldehyde solution for 20 minutes, at room temperature. […]
(§6) The internalization by endocytosis of doxorobucin of the compounds (5) and (7) and of compound (7) in the presence of folic acid (AF) was monitored by confocal microscopy using the fluorescence of doxorubicin in the Hela cells and in the A549 cells.

[2] = system: A549 cells expressing little or none of these receptors; test: Internalization monitored by confocal microscopy (doxorubicin fluorescence) in A549 cells; settings: 10 μM
Description: as §1, §2, §3, §4, §5, §6

Hela cells = test: Proliferation test (XTT) on Hela cells; settings: 0 to 1000 nM, 4 days
Description: (§7) In order to check that the endocytosis of compound (7) DOX-GAL-AF is followed by release of the drug in the intracellular medium, proliferation tests were performed on Hela and A549 cells incubated in the presence of increasing concentrations (0 to 1000 nM) of doxorubicin (DOX), compound (5) (DOX-GAL) and compound (7) (DOX-GAL-AF) for 4 days.
(§8) The cell proliferation kit II (XTT; Roche) was used to evaluate the cellular proliferation. The kit was used following the manufacturer's recommendations.
(§9) In brief, 3×10^3 cells/well were placed on 96 culture plates and then in 100 μl of medium,
(§10) The cells were cultured as previously indicated.
(§11) The cells were cultured for 24 hours before addition of the compounds tested in the indicated concentration.
(§12) After 4 days of treatment, 50 μl of XTT marking mixture were added to the well. The cells were then incubated for 4 hours at 37° C. before the absorbance was determined at 480 nm.
(§13) In order to check that the enzymatic activation of compound (7) DOX-GAF-AF can effectively take place in the cellular environment, cytotoxicity tests were repeated in a culture medium previously supplemented with β-galactosidase (E. coli) (40 U·mL^−1) (curves in dotted lines).

A549 cells = test: Proliferation test (XTT) on A549 cells; settings: 0 to 1000 nM, 4 days
Description: as §7, §8, §9, §10, §11, §12, §13

| SMILES | internalization by endocytosis (fluorescence of doxorubicin, confocal microscopy) [1] | internalization by endocytosis (fluorescence of doxorubicin, confocal microscopy) [2] | inhibition of proliferation (in words) (Hela cells) | toxicity / inhibition of proliferation (in words) (A549 cells) |
| --- | --- | --- | --- | --- |
| C#CCC(OC(=O)NC1CC(O[C@H]2C[C@](O)(C(=O)CO)Cc3c(O)c4c(c(O)c32)C(=O)c2c(OC)cccc2C4=O)OC(C)C1O)c1ccc(O[C@@H]2OC(CO)[C@H](O)C(O)C2O)c([N+](=O)[O-])c1 (some centres unmarked) [Compound 5] | not internalized in any of the cell lines | not internalized in any of the cell lines | ineffective on the two cell lines | ineffective on the two cell lines |
| COc1cccc2c1C(=O)c1c(O)c3c(c(O)c1C2=O)C[C@@](O)(C(=O)CO)C[C@@H]3O[C@H]1C[C@H](N)[C@H](O)[C@H](C)O1 [doxorubicin] | penetrates non-specifically through the membranes of the two cell lines | penetrates non-specifically through the membranes of the two cell lines | inhibits the proliferation of these two lines | inhibits the proliferation of these two lines |
